Data reported in patent US7642221B2, “Substituted thien-3-yl-sulphonylamino(thio)carbonyl-triazoline(ethi)ones” (Bayer Aktiengesellschaft, priority 1999, dated 2010).

Key:
Setaria [1] = assay: Pre-emergence test/greenhouse; type: in vivo; conditions: greenhouse, rated after three weeks
Protocol: (§1) • Solvent: 5 parts by weight of acetone • Emulsifier: 1 part by weight of alkylaryl polyglycol ether
(§2) To produce a suitable preparation of active compound, 1 part by weight of active compound is mixed with the stated amount of solvent, the stated amount of emulsifier is added and the concentrate is diluted with water to the desired concentration.
(§3) Seeds of the test plants are sown in normal soil. After about 24 hours, the soil is sprayed with the preparation of active compound such that the particular amount of active compound desired is applied per unit area. The concentration of the spray liquor is chosen so that the particular amount of active compound desired is applied in 1000 liters of water per hectare.
(§4) After three weeks, the degree of damage to the plants is rated in % damage in comparison to the development of the untreated control.
(§5) The figure denote: • 0%=no effect (like untreated control) • 100%=total destruction

Amaranthus [2] = assay: Pre-emergence test/greenhouse; type: in vivo; conditions: greenhouse, 250 g of ai/ha, rated after three weeks
Protocol: as §1, §2, §3, §4, §5

Cyperus = assay: Pre-emergence test/greenhouse; type: in vivo; conditions: greenhouse, 250 g of ai/ha, rated after three weeks
Protocol: as §1, §2, §3, §4, §5

Sinapis [3] = assay: Pre-emergence test/greenhouse; type: in vivo; conditions: greenhouse, 250 g of ai/ha, rated after three weeks
Protocol: as §1, §2, §3, §4, §5

Alopecurus [4] = assay: Pre-emergence test/greenhouse; type: in vivo; conditions: greenhouse, rated after three weeks
Protocol: as §1, §2, §3, §4, §5

Galium = assay: Pre-emergence test/greenhouse; type: in vivo; conditions: greenhouse, 250 g of ai/ha, rated after three weeks
Protocol: as §1, §2, §3, §4, §5

Abutilon [5] = assay: Pre-emergence test/greenhouse; type: in vivo; conditions: greenhouse, 250 g of ai/ha, rated after three weeks
Protocol: as §1, §2, §3, §4, §5

weeds [6] = assay: Pre-emergence test, activity against weeds; type: in vivo
Protocol: as §1, §2, §3, §4, §5

Setaria [7] = assay: Post-emergence test/greenhouse; type: in vivo; conditions: greenhouse, 250 g of ai/ha, rated after three weeks
Protocol: as §1
(§6) To produce a suitable preparation of active compound, one part by weight of active compound is mixed with the stated amount of solvent, the stated amount of emulsifier is added and the concentrate is diluted with water to the desired concentration.
(§7) Test plants which have a height of 5-15 cm are sprayed with the preparation of active compound such that the particular amounts of active compound desired are applied per unit area. The concentration of the spray liquor is chosen so that the particular amounts of active compound desired are applied in 1000 l of water/ha.
as §4
(§8) The figures denote: • 0%=no effect (like untreated control) • 100%=total destruction

Amaranthus [8] = assay: Post-emergence test/greenhouse; type: in vivo; conditions: greenhouse, 250 g of ai/ha, rated after three weeks
Protocol: as §1, §6, §7, §4, §8

Sinapis [9] = assay: Post-emergence test/greenhouse; type: in vivo; conditions: greenhouse, 250 g of ai/ha, rated after three weeks
Protocol: as §1, §6, §7, §4, §8

Alopecurus [10] = assay: Post-emergence test/greenhouse; type: in vivo; conditions: greenhouse, 250 g of ai/ha, rated after three weeks
Protocol: as §1, §6, §7, §4, §8

Avenafatua = assay: Post-emergence test/greenhouse; type: in vivo; conditions: greenhouse, 250 g of ai/ha, rated after three weeks
Protocol: as §1, §6, §7, §4, §8

Abutilon [11] = assay: Post-emergence test/greenhouse; type: in vivo; conditions: greenhouse, 250 g of ai/ha, rated after three weeks
Protocol: as §1, §6, §7, §4, §8

Xanthium [12] = assay: Post-emergence test/greenhouse; type: in vivo; conditions: greenhouse, 250 g of ai/ha, rated after three weeks
Protocol: as §1, §6, §7, §4, §8

weeds [13] = assay: Post-emergence test, activity against weeds; type: in vivo
Protocol: as §1, §6, §7, §4, §8

Chenopodium = assay: Pre-emergence test/greenhouse; type: in vivo; conditions: greenhouse, 60 g of ai/ha, rated after three weeks
Protocol: as §1, §2, §3, §4, §5

Veronica = assay: Pre-emergence test/greenhouse; type: in vivo; conditions: greenhouse, 60 g of ai/ha, rated after three weeks
Protocol: as §1, §2, §3, §4, §5

Stellaria = assay: Pre-emergence test/greenhouse; type: in vivo; conditions: greenhouse, 60 g of ai/ha, rated after three weeks
Protocol: as §1, §2, §3, §4, §5

Cotton = assay: Pre-emergence test/greenhouse; type: in vivo; conditions: greenhouse, 60 g of ai/ha, rated after three weeks
Protocol: as §1, §2, §3, §4, §5

Solanum = assay: Pre-emergence test/greenhouse; type: in vivo; conditions: greenhouse, 60 g of ai/ha, rated after three weeks
Protocol: as §1, §2, §3, §4, §5

Bromus = assay: Pre-emergence test/greenhouse; type: in vivo; conditions: greenhouse, 60 g of ai/ha, rated after three weeks
Protocol: as §1, §2, §3, §4, §5

Viola = assay: Pre-emergence test/greenhouse; type: in vivo; conditions: greenhouse, 60 g of ai/ha, rated after three weeks
Protocol: as §1, §2, §3, §4, §5

Echinochloa = assay: Pre-emergence test/greenhouse; type: in vivo; conditions: greenhouse, 60 g of ai/ha, rated after three weeks
Protocol: as §1, §2, §3, §4, §5

Xanthium [14] = assay: Pre-emergence test/greenhouse; type: in vivo; conditions: greenhouse, 250 g of ai/ha, rated after three weeks
Protocol: as §1, §2, §3, §4, §5

Matricaria = assay: Pre-emergence test/greenhouse; type: in vivo; conditions: greenhouse, 60 g of ai/ha, rated after three weeks
Protocol: as §1, §2, §3, §4, §5

| SMILES | degree of damage to the plants, Setaria (Setaria [1]; 250 g of ai/ha) [%] | degree of damage to the plants, Amaranthus (Amaranthus [2]) [%] | degree of damage to the plants, Cyperus (Cyperus) [%] | degree of damage to the plants, Sinapis (Sinapis [3]) [%] | degree of damage to the plants, Alopecurus (Alopecurus [4]; 250 g of ai/ha) [%] | degree of damage to the plants, Galium (Galium) [%] | degree of damage to the plants, Abutilon (Abutilon [5]) [%] | activity against weeds (weeds [6]) | degree of damage to the plants, Setaria (Setaria [7]) [%] | degree of damage to the plants, Amaranthus (Amaranthus [8]) [%] | degree of damage to the plants, Sinapis (Sinapis [9]) [%] | degree of damage to the plants, Alopecurus (Alopecurus [10]) [%] | degree of damage to the plants, Avenafatua (Avenafatua) [%] | degree of damage to the plants, Abutilon (Abutilon [11]) [%] | degree of damage to the plants, Xanthium (Xanthium [12]) [%] | activity against weeds (weeds [13]) | degree of damage to the plants, Chenopodium (Chenopodium) [%] | degree of damage to the plants, Veronica (Veronica) [%] | degree of damage to the plants, Stellaria (Stellaria) [%] | degree of damage to the plants, Bromus (Bromus) [%] | further results |
| --- | --- | --- | --- | --- | --- | --- | --- | --- | --- | --- | --- | --- | --- | --- | --- | --- | --- | --- | --- | --- | --- |
| COC(=O)c1csc(C)c1S(=O)(=O)NC(=O)n1nc(C2CC2)n(C2CC2)c1=O [Example 9] | 100 | 100 | 100 | 95 | 95 | 95 | 100 | very strong activity | 100 | 100 | 100 | 100 | 100 | 100 | 100 | very strong activity | – | – | – | – | – |
| COC(=O)c1csc(C)c1S(=O)(=O)NC(=O)n1nc(OC(C)C)n(C2CC2)c1=O [Example 8] | – | – | – | – | – | – | – | very strong activity | 100 | 100 | 95 | 100 | 100 | 100 | 100 | very strong activity | 90 | 95 | 95 | 90 | degree of damage to the plants, Cotton (Cotton): 0%; degree of damage to the plants, Solanum (Solanum): 90%; degree of damage to the plants, Viola (Viola): 100%; degree of damage to the plants, Echinochloa (Echinochloa): 90% |
| CCOc1nn(C(=O)NS(=O)(=O)c2c(C(=O)OC)csc2C)c(=O)n1C1CC1 [Example 6] | 100 | 95 | 100 | 95 | 95 | 90 | 100 | very strong activity | 100 | 100 | 100 | 100 | 100 | 100 | 100 | very strong activity | – | – | – | – | degree of damage to the plants, Xanthium (Xanthium [14]): 95% |
| CCOc1nn(C(=O)NS(=O)(=O)c2c(C(=O)OC)csc2C)c(=O)n1C [Example 1, methyl 4-[[[(3-ethoxy-4,5-dihydro-4-methyl-5-oxo-1H-1,2,4-triazol-1-yl)-carbonyl]-amino]-sulphonyl]-5-methyl-thiophene-3-carboxylate] | – | – | – | – | – | – | – | very strong activity | 100 | 100 | 100 | 100 | 100 | 100 | 100 | very strong activity | 100 | 100 | 95 | 90 | degree of damage to the plants, Setaria (Setaria [1]; 60 g of ai/ha): 90%; degree of damage to the plants, Matricaria (Matricaria): 95%; degree of damage to the plants, Alopecurus (Alopecurus [4]; 60 g of ai/ha): 90%; degree of damage to the plants, Viola (Viola): 100%; melting point: 163 °C |
